According to patent publication US6472348B1, “Pyridone derivatives and herbicides” (Kumiai Chemical Industry Co., Ltd., priority 1996, dated 2002):

Experiments:
Assay type in all cases: in vivo
[1] = system: cotton (Go); experiment: Test Example 4: crop plant selectivity by upland field soil treatment (cotton), phytotoxicity; parameters: scale not given here; conditions: dose 6.3 g ai/10 a, evaluated 21st day after application
Method: (§1) (Test on Crop Plant Selectivity by Upland Field Soil Treatment)
(§2) In a plastic pot (surface area: 600 cm^2) filled with sand, cotton (Go), Diaitaria ciliaris (Di), green foxtail (Se), pale smartweed (Po), slender amaranth (Am), common lambsquarters (Ch) and China jute (Ab) were sown and covered with soil. […] The plants were then cultured in a green house, and the evaluation of the herbicidal effects and phytotoxicity was conducted on the 21st day after the application in accordance with the standards as identified in Table 47. Symbol—represents “not tested”.

[2] = system: pale smartweed (Po); experiment: Test Example 4: crop plant selectivity by upland field soil treatment (cotton), herbicidal effects; parameters: scale not given here; conditions: dose 6.3 g ai/10 a, evaluated 21st day after application
Method: as §1, §2

[3] = system: common lambsquarters (Ch); experiment: as above; parameters: scale not given here; conditions: dose 6.3 g ai/10 a, evaluated 21st day after application
Method: as §1, §2

[4] = system: China jute (Ab); experiment: as above; parameters: scale not given here; conditions: dose 6.3 g ai/10 a, evaluated 21st day after application
Method: as §1, §2

[5] = system: slender amaranth (Am); experiment: as above; parameters: scale not given here; conditions: dose 6.3 g ai/10 a, evaluated 21st day after application
Method: as §1, §2

[6] = system: green foxtail (Se); experiment: as above; parameters: scale not given here; conditions: dose 6.3 g ai/10 a, evaluated 21st day after application
Method: as §1, §2

[7] = system: corn (Ze); experiment: Test Example 7: crop plant selectivity by upland field soil treatment (corn), phytotoxicity; parameters: scale not given here; conditions: dose 6.3 g ai/10a, 21st day after application
Method: as §1
(§3) In a plastic pot (surface area: 600 cm^2) filled with sand, corn (Ze), green foxtail (Se), pale smartweed (Po), slender amaranth (Am), common lambsquarters (Ch) and China jute (Ab) were sown and covered with soil. […] The plants were then cultured in a green house, and the evaluation of the herbicidal effects and phytotoxicity was conducted on the 21st day after the application in accordance with the standards as identified in Table 47.

[8] = system: pale smartweed (Po); experiment: Test Example 6: crop plant selectivity by upland field soil treatment (soybean), herbicidal effects; parameters: scale not given here; conditions: dose 6.3 g ai/10a, 21st day after application
Method: as §1
(§4) In a plastic pot (surface area: 600 cm^2) filled with sand, soybean (Gl), Diaitaria ciliaris (Di), green foxtail (Se), Johnsongrass (So), pale smartweed (Po), slender amaranth (Am), common lambsquarters (Ch) and China jute (Ab) were sown and covered with soil. […] The plants were then cultured in a green house, and the evaluation of the herbicidal effects and phytotoxicity was conducted on the 21st day after the application in accordance with the standards as identified in Table 47. Symbol—represents “not tested”.

[9] = system: common lambsquarters (Ch); experiment: as above; parameters: scale not given here; conditions: dose 6.3 g ai/10a, 21st day after application
Method: as §1, §4

[10] = system: China jute (Ab); experiment: as above; parameters: scale not given here; conditions: dose 6.3 g ai/10a, 21st day after application
Method: as §1, §4

[11] = system: slender amaranth (Am); experiment: as above; parameters: scale not given here; conditions: dose 6.3 g ai/10a, 21st day after application
Method: as §1, §4

[12] = system: green foxtail (Se); experiment: as above; parameters: scale not given here; conditions: dose 6.3 g ai/10a, 21st day after application
Method: as §1, §4

[13] = system: pale smartweed (Po); experiment: Test Example 7: crop plant selectivity by upland field soil treatment (corn), herbicidal effects; parameters: scale not given here; conditions: dose 6.3 g ai/10a, 21st day after application
Method: as §1, §3

[14] = system: common lambsquarters (Ch); experiment: as above; parameters: scale not given here; conditions: dose 6.3 g ai/10a, 21st day after application
Method: as §1, §3

[15] = system: China jute (Ab); experiment: as above; parameters: scale not given here; conditions: dose 6.3 g ai/10a, 21st day after application
Method: as §1, §3

[16] = system: slender amaranth (Am); experiment: as above; parameters: scale not given here; conditions: dose 6.3 g ai/10a, 21st day after application
Method: as §1, §3

[17] = system: green foxtail (Se); experiment: as above; parameters: scale not given here; conditions: dose 6.3 g ai/10a, 21st day after application
Method: as §1, §3

[18] = system: barnyardgrass (Ec); experiment: Test Example 2: herbicidal effects by upland field soil treatment; conditions: 100 g of the active ingredient per 10 ares, 21st day after the application, index 0-5 of Table 47;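 note: grade of growth control; 5 = at least 90%; 4 = 70 to 90%; 3 = 50 to 70%; 2 = 30 to 50%; 1 = 10 to 30%; 0 = under 10%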
From the text: (§5) (Test on Herbicidal Effects by Upland Field Soil Treatment)

[19] = system: pale smartweed (Po); experiment: as above; conditions: 100 g of the active ingredient per 10 ares, 21st day after the application, index 0-5 of Table 47
From the text: as §5

[20] = system: rice flatsedge (Ci); experiment: as above; conditions: 100 g of the active ingredient per 10 ares, 21st day after the application, index 0-5 of Table 47
From the text: as §5

[21] = system: common lambsquarters (Ch); experiment: as above; conditions: 100 g of the active ingredient per 10 ares, 21st day after the application, index 0-5 of Table 47
From the text: as §5

[22] = system: Digitaria ciliaris (Di); experiment: as above; conditions: 100 g of the active ingredient per 10 ares, 21st day after the application, index 0-5 of Table 47;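 note: grade of growth control; 5 = at least 90%; 4 = 70 to 90%; 3 = 50 to 70%; 2 = 30 to 50%; 1 = 10 to 30%; 0 = under 10%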
From the text: as §5

[23] = system: slender amaranth (Am); experiment: as above; conditions: 100 g of the active ingredient per 10 ares, 21st day after the application, index 0-5 of Table 47
From the text: as §5

[24] = system: barnyardgrass (Ec); experiment: Test Example 1: herbicidal effects by paddy field soil treatment; conditions: 100 g of the active ingredient per 10 ares, 21st day after the application, index 0-5 of Table 47;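 note: grade of growth control; 5 = at least 90%; 4 = 70 to 90%; 3 = 50 to 70%; 2 = 30 to 50%; 1 = 10 to 30%; 0 = under 10%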
Method in brief: (§6)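 Greenhouse pot test in flooded paddy soil, dosed at 100 g a.i. per 10 ares; effect scored on day 21.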

[25] = system: monochoria (Mo); experiment: as above; conditions: 100 g of the active ingredient per 10 ares, 21st day after the application, index 0-5 of Table 47;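 note: grade of growth control; 5 = at least 90%; 4 = 70 to 90%; 3 = 50 to 70%; 2 = 30 to 50%; 1 = 10 to 30%; 0 = under 10%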
Method in brief: as §6

[26] = system: bulrush (Sc); experiment: as above; conditions: 100 g of the active ingredient per 10 ares, 21st day after the application, index 0-5 of Table 47
Method in brief: as §6

[27] = system: barnyardgrass (Ec); experiment: Test Example 3: herbicidal effects by upland field foliage treatment; parameters: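 grade of growth control; 5 = at least 90%; 4 = 70 to 90%; 3 = 50 to 70%; 2 = 30 to 50%; 1 = 10 to 30%; 0 = under 10%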; conditions: 100 g of the active ingredient per 10 ares, evaluated on the 14th day after treatment
Method in brief: (§7)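 Scoring used a standard effect scale on the 14th day post-treatment, with plants held in a greenhouse throughout. Foliar application was made to weeds raised from seed in sand-filled pots for 2 weeks.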

[28] = system: pale smartweed (Po); experiment: as above; parameters: scale not given here; conditions: 100 g of the active ingredient per 10 ares, evaluated on the 14th day after treatment
Method in brief: as §7

[29] = system: rice flatsedge (Ci); experiment: as above; parameters: scale not given here; conditions: 100 g of the active ingredient per 10 ares, evaluated on the 14th day after treatment
Method in brief: as §7

[30] = system: common lambsquarters (Ch); experiment: as above; parameters: scale not given here; conditions: 100 g of the active ingredient per 10 ares, evaluated on the 14th day after treatment
Method in brief: as §7

[31] = system: slender amaranth (Am); experiment: as above; parameters: scale not given here; conditions: 100 g of the active ingredient per 10 ares, evaluated on the 14th day after treatment
Method in brief: as §7

[32] = system: Diaitaria ciliaris (Di); experiment: as above; parameters: scale not given here; conditions: 100 g of the active ingredient per 10 ares, evaluated on the 14th day after treatment
Method in brief: as §7

[33] = system: soybean (Gl); experiment: Test Example 6: crop plant selectivity by upland field soil treatment (soybean), phytotoxicity; parameters: scale not given here; conditions: dose 6.3 g ai/10a, 21st day after application
Method: as §1, §4

[34] = system: pale smartweed (Po); experiment: Test Example 5: crop plant selectivity by upland field soil treatment (wheat), herbicidal effects; parameters: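 grade of growth control; 5 = at least 90%; 4 = 70 to 90%; 3 = 50 to 70%; 2 = 30 to 50%; 1 = 10 to 30%; 0 = under 10%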; conditions: dose 6.3 g ai/10a, 21st day after application
Method: as §1
(§8) In a plastic pot (surface area: 600 cm^2) filled with sand, wheat (Tr), Diaitaria ciliaris (Di), green foxtail (Se), pale smartweed (Po), slender amaranth (Am), common lambsquarters (Ch) and China jute (Ab) were sown and covered with soil. […] The plants were then cultured in a green house, and the evaluation of the herbicidal effects and phytotoxicity was conducted on the 21st day after the application in accordance with the standards as identified in Table 47. Symbol—represents “not tested”.

[35] = system: common lambsquarters (Ch); experiment: as above; parameters: scale not given here; conditions: dose 6.3 g ai/10a, 21st day after application
Method: as §1, §8

[36] = system: China jute (Ab); experiment: as above; parameters: scale not given here; conditions: dose 6.3 g ai/10a, 21st day after application
Method: as §1, §8

[37] = system: slender amaranth (Am); experiment: as above; parameters: scale not given here; conditions: dose 6.3 g ai/10a, 21st day after application
Method: as §1, §8

[38] = system: green foxtail (Se); experiment: as above; parameters: scale not given here; conditions: dose 6.3 g ai/10a, 21st day after application
Method: as §1, §8

[39] = system: wheat (Tr); experiment: Test Example 5: crop plant selectivity by upland field soil treatment (wheat), phytotoxicity; parameters: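 grade of crop injury; 5 = at least 90%; 4 = 70 to 90%; 3 = 50 to 70%; 2 = 30 to 50%; 1 = 10 to 30%; 0 = under 10%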; conditions: dose 6.3 g ai/10a, 21st day after application
Method: as §1, §8

| SMILES | Phytotoxicity Go [1] | Herbicidal effects Po [2] | Herbicidal effects Ch [3] | Herbicidal effects Ab [4] | Herbicidal effects Am [5] | Herbicidal effects Se [6] | Herbicidal effects Po [8] | Herbicidal effects Ch [9] | Herbicidal effects Ab [10] | Herbicidal effects Am [11] | Herbicidal effects Se [12] | Herbicidal effects Ec [18] | Herbicidal effects Po [19] | Herbicidal effects Ci [20] | Herbicidal effects Ch [21] | Herbicidal effects Di [22] | Herbicidal effects Am [23] | Herbicidal effects Ec [24] | Herbicidal effects Mo [25] | Herbicidal effects Sc [26] | further results |
| --- | --- | --- | --- | --- | --- | --- | --- | --- | --- | --- | --- | --- | --- | --- | --- | --- | --- | --- | --- | --- | --- |
| CCOc1cc(-c2ccc(C(F)(F)F)n(C)c2=O)c(F)cc1Cl [1-150] | 0 | 5 | 5 | 5 | 5 | 5 | 5 | 5 | 5 | 5 | 5 | 5 | 5 | 5 | 5 | 5 | 5 | 5 | 5 | 5 | Phytotoxicity Ze [7]: 1; Herbicidal effects Po [13]: 5; Herbicidal effects Ch [14]: 5; Herbicidal effects Ab [15]: 5; Herbicidal effects Am [16]: 5; Herbicidal effects Se [17]: 5; Herbicidal effects Ec [27]: 5; Herbicidal effects Po [28]: 5; Herbicidal effects Ci [29]: 5; Herbicidal effects Ch [30]: 5; Herbicidal effects Am [31]: 5; Herbicidal effects Di [32]: 5; Phytotoxicity Gl [33]: 1 |
| C=C(C)COc1cc(-c2ccc(C(F)(F)F)n(C)c2=O)c(F)cc1Cl [1-151] | 1 | 5 | 5 | 5 | 5 | 5 | 5 | 5 | 5 | 5 | 5 | 5 | 5 | 5 | 5 | 5 | 5 | 5 | 5 | 5 | Herbicidal effects Po [34]: 5; Herbicidal effects Ch [35]: 5; Herbicidal effects Ab [36]: 5; Herbicidal effects Am [37]: 5; Herbicidal effects Se [38]: 5; Phytotoxicity Tr [39]: 2; Herbicidal effects Ec [27]: 5; Herbicidal effects Po [28]: 5; Herbicidal effects Ci [29]: 5; Herbicidal effects Ch [30]: 5; Herbicidal effects Am [31]: 5; Herbicidal effects Di [32]: 5; Phytotoxicity Gl [33]: 0 |
